Data published in patent publication US20110212111A1, “MHC II Associated Protein and Uses Thereof” (priority 2008, published 2011).
Values belong to the compound of their own block, whether it stands above or below them.

Key:
NFκB = test: MPYS induced NFκB reporter activation in TLR4-293 cells; type: cell-based, human; conditions: TLR4-293T / TLR4-293GT cells
Method: (§1) 293 GT cells and their derivatives (˜1×10^5) were seeded in 24-well dishes and transfected the following day using Effectene transfection reagent kit (Qiagen, cat #301427). Reporter assays were performed as previous described. Id.
(§2) Cells were seeded in 24-well dishes (˜1×10^5/ml) and transfected the following day using Effectene transfection reagent kit (Qiagen, 301427). Reporter assays were performed as previous described by Bin et al., in J Biol. Chem., 2003, 278, 24526-24532. All experiments were repeated at least three times and results are representative.

[1] = system: RAW264.7 macrophage cells; test: Listeria monocytogenes induced IFNβ response in RAW264.7 cells (IFNβ-luc); type: cell-based, mouse
Method: RAW264.7, K46 B lymphoma cells and the 293GT cells were maintained in IMDM supplemented with 5% FBS. 293MT cells were maintained in DMEM (GIBCO, cat: 11965), 5% FBS (Biosource, 200p-500HI), sodium pyruvate (GIBCO 11360, 1 mM), HEPES buffer (GIBCO 15630-080, 10 mM) and 2-ME (50 μM) (Life Technologies, Gaithersburg Md.). The RAW264.7 cells stably expressing the IFNβ-Luciferase construct were generated by co-transfecting RAW264.7 cells with pGL3-IFNβ-Luciferase (Promega) and p-Puromycin plasmids (Clonetch). The stable cell line was established under puromycin selection (4 μg/ml).
RAW264.7 cells expressing the IFNβ-luc construct were infected with Listeria monocytogenes strain 10403S at multiplicity of five bacteria/cell. Cells were washed at 1 h after infection. Live bacterial were killed by addition of gentamicin. Whole cell lysates were prepared 5.5 h after infection. Luciferase activity was read with BD Monolight kit and Synergy reader.

TLR4-293T cells = test: Measurement of intracellular ROS (H2DCFDA flow cytometry); type: cell-based, human
Method: Cells were washed and suspended in PBS, and then culture with H2DCFDA (5 μM) (Invitrogen, D399) for 20 min at 37° C. They were then washed in PBS and the fluorescence was measured by flow cytometry.

IFNβ promoter = test: MPYS induced IFNβ reporter activation in TLR4-293 cells; type: cell-based, human; conditions: TLR4-293T / TLR4-293GT cells
Method: as §1, §2

MPYS [2] = molecular target: T1, MPYS (Mus musculus, UniProt Q3TBT3); test: MPYS oxidation (disulfide bonded homodimer, non-reducing SDS-PAGE); type: cell-based; conditions: RAW264.7 cells
T1 construct: used to detect the endogenous MPYS complex in mouse splenocytes; endogenous in cells; host or cells: mouse splenocytes; K46 mouse B lymphoma cells; RAW264.7 mouse macrophage cells
T1 sequence (Q3TBT3 1-378): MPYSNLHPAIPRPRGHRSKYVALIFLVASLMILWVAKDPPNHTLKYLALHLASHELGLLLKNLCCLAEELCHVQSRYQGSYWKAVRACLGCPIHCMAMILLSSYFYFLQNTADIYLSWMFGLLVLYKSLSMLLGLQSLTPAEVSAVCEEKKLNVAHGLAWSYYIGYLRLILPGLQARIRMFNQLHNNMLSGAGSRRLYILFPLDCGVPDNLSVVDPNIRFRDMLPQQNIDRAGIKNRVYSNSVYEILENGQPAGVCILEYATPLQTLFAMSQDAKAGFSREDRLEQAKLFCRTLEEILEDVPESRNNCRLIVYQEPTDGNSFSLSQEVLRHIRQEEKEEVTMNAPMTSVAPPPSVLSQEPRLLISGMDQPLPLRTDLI
Text: (§3) It was also noticed that after the thiol reductase reaction, a large portion of MPYS occurs in a ˜80 kDa SDS resistant form consistent with the predicted size of a homodimer. The present inventors have shown that MPYS is dimeric in mouse B cells. To determine whether MPYS occurs as a non-disulfide-bonded dimer that becomes […] disulfide bonded upon oxidation, the chemical crosslinker Dithiobis[succinimidyl propionate] (DSP) was used to detect the endogenous MPYS complex in mouse splenocytes. In non-reducing SDS-PAGE, DSP treated MPYS ran as a single band of ˜80 kDa, the predicted size of a MPYS homodimer while non-DSP treated mock (or DTT treated) MPYS ran at the monomer size (˜40 kDa). It was also discovered that Flag-tagged MPYS associates with HA-MPYS when the two were co-expressed. Thus, the ˜80 kDa band seen on the non-reducing gels is a MPYS homodimer. Since this homodimer is sensitive to SDS, its dimerization is not mediated by intermolecular disulfide bonds.
(§4) The appearance of the SDS resistant MPYS homodimer after the thiol reductase reaction indicated the formation of intermolecular disulfide bonds in homodimeric MPYS is a consequence of oxidation. […] […] H2O2) and the thiol reductase reaction can lead to formation of intermolecular disulfide bonds in homodimeric MPYS.

[3] = system: tyrosine phosphorylation in K46 cells; test: MHC II mAb-induced tyrosine phosphorylation (immunoblotting); type: cell-based, murine
Method: (§5) ERK inhibitor PD98059 (Calbiochem, 513000), AKT inhibitor LY294002 (Calbiochem, 440202), and p38 inhibitor SB203580 (Calbiochem, 559389) were used in this study. The inhibitor was added to cells at 5×10^6 cells/mL and cultured for 4 hrs. Samples were then split into 1×10^6 cells/mL and cell death was induced and measured as above. To inhibit src kinase, PP2 (Calbiochem, 529573) was added into cells and cultured for 30 min before cell death was induced as above.
(§6) Cells were lysed in 0.33% CHAPS buffer (150 mM NaCl, 10 mM Tris pH 7.5, 10 mM sodium pyrophosphate, 2 mM Na3VO4, 10 mM NaF, 0.4 mM EDTA, 1 mM PMSF, and 1 μg/mL each of aprotinin, α1-antitrypsin, and leupeptin) (40×10^6/mL) at 4° C. for 1.5 h or overnight. Cell lysates were centrifuged at 12,000 g at 4° C. for 20 min. Supernatants were analyzed on a 10% SDS-PAGE gel. The gel was transferred to a PVDF membrane and proteins were probed with Abs and visualized using an ODYSSEY Infrared Imaging System (LI-COR). […]

ERK = test: MHC II induced ERK activation (phospho-ERK blotting); type: cell-based, murine; conditions: K46 cells; PD98059 at 50 μM
Method: as §5, §6

K46 B lymphoma cells = test: MHC II mAb-induced cell death of K46 cells (Annexin V/PI, DiOC6/PI flow cytometry); type: cell-based, murine; conditions: for effect of inhibitor on MHC II mAb-induced death response: K46 cells pre-treated with inhibitor
Method: K46 cells were suspended in 5% complete IMDM media at a concentration of 10^6 cells/mL and then transferred to round bottomed 96-well plates (100 μL/well) and cultured at 37° C. for 1 h. Biotinylated MHC II mAbs were added into the wells and incubated for 12 min. Avidin was then added into the wells and cells were cultured for the indicated time. PI (2 μg/mL) and Annexin V-Alexa Fluor 488 (1 μL/100 μL cells) (A-13201, Molecular Probes), or DiOC6 (50 nM) and PI (2 μg/mL) was used to measure apoptotic or dead cells by flow cytometry.
as §5

[4] = system: calcium mobilization in K46 cells; test: MHC II mAb-induced calcium mobilization (Indo-1AM); type: cell-based, murine
Method: Cells were loaded with Indo-1AM (Molecular Probes, Eugene, Oreg.) for 30 min at 37° C. as recommended by the manufacturer. Anti-MHC II mAb (10 μg/mL) was then added to the suspension for another 12 min at 37° C. before cells were washed and suspended in IMDM supplemented with 2% FCS. The cells (10^6 cells/mL) were analyzed before and after stimulation via cros slinking with avidin (20 μg/mL). Data were analyzed by Flow-Jo software (Tree Star, Inc., San Carlos, Calif.).

MPYS [5] = test: MPYS oxidation (disulfide bonded homodimer, non-reducing SDS-PAGE); type: cell-based; conditions: ER stress inducer; cells not given
Text: as §3, §4

Compound: C=C(C)[C@H]1Cc2c(ccc3c2O[C@@H]2COc4cc(OC)c(OC)cc4[C@@H]2C3=O)O1 [rotenone]
effect on MPYS induced NFκB reporter activation (NFκB): completely inhibited | effect on Listeria monocytogenes induction of IFNβ production [1]: significantly inhibited | cellular ROS level (TLR4-293T cells): increased cellular ROS level | effect on MPYS induced IFNβ reporter activation (IFNβ promoter): completely inhibited | formation of oxidized MPYS (MPYS [2]): led to the formation of oxidized MPYS

Compound: CC(C)(C)n1nc(-c2ccc(Cl)cc2)c2c(N)ncnc21 [PP2]
effect on MHC II mAb-induced tyrosine phosphorylation ([3]; K46 cells): blocked | effect on MPYS tyrosine phosphorylation and recruitment of SHP-1 and SHIP-1 ([3]; after MHC class II aggregation): blocked | effect on MHC II induced ERK activation (ERK): neither MHC class II-mediated activation of ERK nor apoptosis was inhibited | effect of inhibitor on MHC II mAb-induced death response (K46 B lymphoma cells): remained largely intact | effect on MHC II mAb-induced calcium responses [4]: blocked

Compound: C[S+]([O-])c1ccc(-c2nc(-c3ccncc3)c(-c3ccc(F)cc3)[nH]2)cc1 (centres unmarked) [SB203580]
effect of inhibitor on MHC II mAb-induced death response (K46 B lymphoma cells): no significant effect

formation of oxidized MPYS (MPYS [2]): led to the formation of oxidized MPYS
Compound: OO [H2O2]

Compound: O=c1cc(N2CCOCC2)oc2c(-c3ccccc3)cccc12 [LY294002]
effect of inhibitor on MHC II mAb-induced death response (K46 B lymphoma cells): no significant effect

formation of oxidized MPYS (MPYS [2]): did not generate oxidized MPYS
Compound: Poly(I:C)

Compound: COc1cccc(-c2cc(=O)c3ccccc3o2)c1N [PD98059]
effect on MHC II induced ERK activation (ERK): did not completely inhibit | inhibition of MHC II mediated cell death (K46 B lymphoma cells; inhibitor at 50 μM, K46 cells): about 50%

Compound: C[C@H]1CCC/C=C/[C@@H]2C[C@H](O)C[C@H]2[C@H](O)/C=C/C(=O)O1 [Brefeldin A]
formation of oxidized MPYS (MPYS [5]): generated oxidized MPYS
